The results in this text go back to patent US10681909B2, “Herbicidal triazoles” (FMC Corporation, priority 2014, dated 2020).

One experiment concerns ducksalad. The experiment can be described thus: Test B flooded paddy test. The class given is in vivo, Heteranthera limosa. Conditions: Heteranthera limosa, 360 h, applied to paddy water at 2-leaf stage, visual rating after 13 to 15 d, scale 0 (no effect) to 100 (complete control), read-out: Plant response rating, Ducksalad, Flood; for pest or weed control at 125 g/ha: 125 g ai/ha. In short, it runs like this:
(§1)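 Pots were flooded to 3 cm above the soil at treatment, and compounds were applied directly into the paddy water. That depth was held throughout. After 13 to 15 d in a greenhouse, plants were rated visually against untreated controls.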

Another experiment has as its system sedge, umbrella. As to the kind of experiment: Test B flooded paddy test. The class given is in vivo, Cyperus difformis. Conditions: Cyperus difformis, 360 h, applied to paddy water at 2-leaf stage, visual rating after 13 to 15 d, scale 0 (no effect) to 100 (complete control), read-out: Plant response rating, Sedge, Umbrella, Flood; for pest or weed control at 125 g/ha: 125 g ai/ha. The method, boiled down: as §1

For the next experiment, the system named is pigweed. The experiment can be described thus: Test A preemergence. In kind it is in vivo, Amaranthus retroflexus. The following applies: Amaranthus retroflexus, pre-emergence, 240 h, 0 to 100 scale (0 no effect, 100 complete control), read-out: Plant response rating, Pigweed; for pest or weed control at 125 g/ha: 125 g ai/ha; for pest or weed control at 500 g/ha: 500 g ai/ha, approx. 10 d. The method, boiled down: (§2)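 Herbicidal response was scored on plants treated pre- or postemergence with surfactant-containing, non-phytotoxic solvent formulations. Preemergence meant a directed spray onto soil (loam–sand) holding sown seed; postemergence plants were at one to two leaves.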

In a further experiment the test system is blackgrass. As to the kind of experiment: Test C postemergence. The class given is in vivo, Alopecurus myosuroides. From the text:
(§3) Seeds of plant species selected from blackgrass (Alopecurus myosuroides), ryegrass, Italian (Italian ryegrass, Lolium multiflorum), wheat (winter wheat, Triticum aestivum), galium (catchweed bedstraw, Galium aparine), corn (Zea mays), crabgrass, large (large crabgrass, Digitaria sanguinalis), foxtail, giant, (giant foxtail, Setaria faberii), johnsongrass (Sorghum halepense), lambsquarters (Chenopodium album), morningglory (Ipomoea coccinea), nutsedge, yellow (yellow nutsedge, Cyperus esculentus), pigweed (Amaranthus retroflexus), ragweed (common ragweed, Ambrosia elatior), soybean (Glycine max), barnyardgrass (Echinochloa crus-galli), oilseed rape (Brassica napus), waterhemp (common waterhemp, Amaranthus rudis), and velvetleaf (Abutilon theophrasti) were planted into a blend of loam soil and sand and treated preemergence with test chemicals formulated in a non-phytotoxic solvent mixture which included a surfactant. At the same time, plants selected from these crop and weed species and also chickweed (common chickweed, Stellaria media), oat, wild (wild oat, Avena fatua), and kochia (Kochia scoparia), were planted in pots containing Sunshine Redi-Earth® planting medium comprising spaghnum peat moss, vermiculite, starter nutrients and dolomitic limestone and treated with postemergence applications of test chemicals formulated in the same manner. Plants ranged in height from 2 to 18 cm (1- to 4-leaf stage) for postemergence treatments. […] A dash (-) response means no test result.

The subject of the next experiment is corn. The experiment can be described thus: Test C postemergence. The class given is in vivo, Zea mays.
From the text: as §3

The next experiment concerns ryegrass, Italian. The experiment can be described thus: Test C postemergence. In kind it is in vivo, Lolium multiflorum.
From the text: as §3

The test system of a further experiment is foxtail, giant. As to the kind of experiment: Test A postemergence. The class given is in vivo, Setaria faberii. The following applies: Setaria faberi, post-emergence, 240 h, 0 to 100 scale (0 no effect, 100 complete control), approx. 10 d, read-out: Plant response rating, Foxtail, Giant; for pest or weed control at 125 g/ha: 125 g ai/ha; for pest or weed control at 500 g/ha: 500 g ai/ha. The method, boiled down: as §2

A further experiment deals with wheat. As to the kind of experiment: Test A postemergence. In kind it is in vivo, Triticum aestivum. The following applies: Triticum aestivum, post-emergence, 240 h, 0 to 100 scale (0 no effect, 100 complete control), approx. 10 d, read-out: Plant response rating, Wheat; for plant injury at 125 g/ha: 125 g ai/ha; for plant injury at 500 g/ha: 500 g ai/ha. In short, it runs like this:
as §2

The next experiment relates to waterhemp. The experiment can be described thus: Test C postemergence. The class given is in vivo, Amaranthus rudis.
From the text: as §3

For a further experiment, the system named is galium. The experiment can be described thus: Test C postemergence. In kind it is in vivo, Galium aparine.
From the text: as §3

In another experiment the test system is soybean. As to the kind of experiment: Test C postemergence. In kind it is in vivo, Glycine max.
From the text: as §3

In experiment [1] the test system is barnyardgrass. As to the kind of experiment: Test A preemergence. The following applies: Echinochloa crus-galli, pre-emergence, 240 h, 0 to 100 scale (0 no effect, 100 complete control), read-out: Plant response rating, Barnyardgrass; for pest or weed control at 125 g/ha: 125 g ai/ha; for pest or weed control at 500 g/ha: 500 g ai/ha, approx. 10 d. In kind it is in vivo, Echinochloa crus-galli. In short, it runs like this:
as §2

Experiment [2] has as its system barnyardgrass. The experiment can be described thus: Test C postemergence. In kind it is in vivo, Echinochloa crus-galli.
From the text: as §3

In the case of `CCCc1nc(-c2ccc(F)cc2)nn1Cc1ccnc(C(F)(F)F)c1` [Compound 6, 4-[[3-(4-fluorophenyl)-5-propyl-1H-1,2,4-triazol-1-yl]methyl]-2-(trifluoromethyl)pyridine], the pest or weed control at 250 g/ha with ducksalad (250 g ai/ha) was determined as 70%; in the experiment with sedge, umbrella (250 g ai/ha), 80%. Also, the pest or weed control at 125 g/ha turned out to be 100% in the experiment on pigweed; 90% in the experiment with foxtail, giant; 80% with barnyardgrass [1]. Moreover, the pest or weed control at 500 g/ha was found to be 100% in the experiment with pigweed; 90% with foxtail, giant; 100% with barnyardgrass [1]. In addition, the “Plant response rating (scale of 0 to 100 where 0 is no effect and 100 is complete control)” value with blackgrass (31 g ai/ha) was determined as 5; in the experiment with blackgrass (62 g ai/ha) it was 5; with blackgrass (125 g ai/ha), 5; with blackgrass (250 g ai/ha), 10; in the experiment with corn (31 g ai/ha), 10; in the experiment on corn (62 g ai/ha), 15. Moreover, the “Plant response rating (scale of 0 to 100 where 0 is no effect and 100 is complete control)” value was determined as 20 in the experiment on corn (125 g ai/ha); 50 in the experiment on corn (250 g ai/ha); 5 in the experiment with ryegrass, Italian (31 g ai/ha); 5 in the experiment with ryegrass, Italian (62 g ai/ha); 5 with ryegrass, Italian (125 g ai/ha); 10 in the experiment on ryegrass, Italian (250 g ai/ha). The “Plant response rating (scale of 0 to 100 where 0 is no effect and 100 is complete control)” value with waterhemp (31 g ai/ha) is recorded as 80; with waterhemp (62 g ai/ha) it was 80; in the experiment on waterhemp (125 g ai/ha), 80; in the experiment with waterhemp (250 g ai/ha) it was 85; with galium (31 g ai/ha), 80; with galium (62 g ai/ha), 80. Further, the “Plant response rating (scale of 0 to 100 where 0 is no effect and 100 is complete control)” value in the experiment with galium (125 g ai/ha) was 90; in the experiment with galium (250 g ai/ha) it was 90; in the experiment on soybean (31 g ai/ha), 35; in the experiment on soybean (62 g ai/ha), 40; in the experiment with soybean (125 g ai/ha), 60; in the experiment on barnyardgrass [2] (31 g ai/ha), 20. Besides, the entries for the “Plant response rating (scale of 0 to 100 where 0 is no effect and 100 is complete control)” value in the experiment with barnyardgrass [2] (62 g ai/ha), in the experiment on barnyardgrass [2] (125 g ai/ha) and with barnyardgrass [2] (250 g ai/ha) were 20, 25 and 40, respectively. Also, in the experiment with wheat, the plant injury at 125 g/ha turned out to be 40%. Moreover, the plant injury at 500 g/ha in the experiment with wheat came to 70%.
For the compound `CCCn1nc(-c2ccc(F)cc2)nc1Cc1ccnc(C(F)(F)F)c1` [Compound 17, 4-[[3-(4-fluorophenyl)-1-propyl-1H-1,2,4-triazol-5-yl]methyl]-2-(trifluoromethyl)pyridine], the pest or weed control at 125 g/ha in the experiment with ducksalad was 70%; with sedge, umbrella, 80%; in the experiment on pigweed, 100%; in the experiment on foxtail, giant, 90%; in the experiment with barnyardgrass [1], 50%. Further, the pest or weed control at 500 g/ha in the experiment on pigweed stood at 100%; in the experiment with foxtail, giant it was 90%; in the experiment with barnyardgrass [1] it was 100%. In the experiment with wheat, the plant injury at 125 g/ha was determined as 60%. In addition, the plant injury at 500 g/ha in the experiment on wheat came out at 80%.
As for `CCn1nc(-c2ccc(F)cc2)nc1C(=O)c1ccnc(C(F)(F)F)c1` [Compound 19, [1-ethyl-3-(4-fluorophenyl)-1H-1,2,4-triazol-5-yl][2-(trifluoromethyl)-4-pyridinyl]methanone], the pest or weed control at 125 g/ha in the experiment on ducksalad was 0%; with sedge, umbrella, 0%; with pigweed, 0%; in the experiment on foxtail, giant, 0%; with barnyardgrass [1], 0%. The pest or weed control at 500 g/ha in the experiment with pigweed came to 0%; in the experiment on foxtail, giant, 0%; in the experiment on barnyardgrass [1] it was 0%. The plant injury at 125 g/ha with wheat is 0%. Moreover, the plant injury at 500 g/ha with wheat was determined as 0%.
Consider `CS(=O)(=O)c1nc(-c2ccc(F)cc2)nn1Cc1ccnc(C(F)(F)F)c1` [Compound 29, 4-[[3-(4-fluorophenyl)-5-(methylsulfonyl)-1H-1,2,4-triazole-1-yl]methyl]-2-(trifluoromethyl)pyridine], for which the pest or weed control at 125 g/ha in the experiment on ducksalad was found to be 0%; in the experiment with sedge, umbrella, 0%; in the experiment on pigweed, 0%; with foxtail, giant, 0%; with barnyardgrass [1], 0%. Also, the pest or weed control at 500 g/ha in the experiment with pigweed came to 0%; in the experiment on foxtail, giant, 0%; in the experiment on barnyardgrass [1], 0%. Further, the plant injury at 125 g/ha with wheat amounted to 0%. In addition, the plant injury at 500 g/ha with wheat is 0%.
